Experimental data as given in ChEMBL document CHEMBL5034031, “Discovery of Next-Generation Tropomyosin Receptor Kinase Inhibitors for Combating Multiple Resistance Associated with Protein Mutation” (J Med Chem, 2021).
Blank lines part the entries; values can stand above or below the compound they belong to.

Experiments:
[1] = Metabolic stability in human liver microsomes assessed as half life at 1 uM measured upto 90 mins in presence of NADPH regenerating system by LC-MS/MS analysis; type: ADME, Microsome
[2] = tested on: BaF3; assay: Antiproliferative activity against mouse BaF3 cells transfected with ETV6-wild type TRKA assessed as cell viability incubated for 72 hrs by CCK8 assay; type: functional, cell-based; conditions: BaF3, 72 h
[3] = tested on: BaF3; assay: Antiproliferative activity against mouse BaF3 cells transfected with ETV6-wild type TRKB assessed as cell viability incubated for 72 hrs by CCK8 assay; type: functional, cell-based; conditions: BaF3, 72 h
[4] = tested on: BaF3; assay: Antiproliferative activity against mouse BaF3 cells transfected with ETV6-wild type TRKC assessed as cell viability incubated for 72 hrs by CCK8 assay; type: functional, cell-based; conditions: BaF3, 72 h
[5] = tested on: BaF3; type: functional, cell-based; conditions: Mus musculus, BaF3, 72 h
[6] = tested on: BaF3; assay: animal or person; type: functional; conditions: Mus musculus, BaF3, po; read-out: TGI
[7] = tested on: BaF3; assay: animal or person; type: functional; conditions: Mus musculus, BaF3, po; read-out: TGI; remark: listed apart in the source

half-life at 1 µM [1]: 3 min
SMILES: Cn1cc(-c2cnn3ccc(N4CCC[C@@H]4c4cc(F)ccc4F)nc23)cn1

half-life at 1 µM [1]: 365 min
SMILES: O=C(Nc1cnn2ccc(N3CCC[C@@H]3c3cc(F)ccc3F)nc12)N1CC[C@H](O)C1 [LAROTRECTINIB]
inhibition in vivo at 15 mg/kg [7]: 70%

Second part, the compound before the results:

SMILES: C[C@@H]1CCc2ncc(F)cc2[C@H]2CCCN2c2ccn3ncc(c3n2)C(=O)N1 [SELITRECTINIB]
IC50 [2]: 1.1 nM
IC50 [3]: 1.4 nM
IC50 [4]: 1.6 nM
IC50 [5]: 72.6 nM
inhibition in vivo at 100 mg/kg [6]: 64%

SMILES: C[C@@H](Nc1ccn2ncc(-c3cnn(C)c3)c2n1)c1cc(F)ccc1OCC(F)F
half-life at 1 µM [1]: 32.4 min

SMILES: Cn1cc(-c2cnn3ccc(N4CCC[C@@H]4c4cc(F)ccc4OCC(F)F)nc23)cn1
half-life at 1 µM [1]: 8.3 min
